Data: patent publication US20190030114A1, “ISOFORM-SPECIFIC CALPAIN INHIBITORS, METHODS OF IDENTIFICATION, AND USES THEREOF” (WESTERN UNIVERSITY OF HEALTH SCIENCES, priority 2014, published 2019)

Key:
[1] = tested on: retina (GCL, IPL, RGC); assay: acute IOP elevation (acute angle closure glaucoma model), systemic (i.p.) C2l; assay type: in vivo, mice
Protocol: FIG. 11A: Calpain-2 inhibition reduces, while calpain-1 knockout exacerbates, cell death in the ganglion cell layer induced by acute IOP elevation. H&E staining of retinal sections from the right eye of vehicle- or C2l-injected wild-type and calpain-1 KO mice and the left eye where sham surgery was performed. Vehicle, 10% DMSO in PBS, was injected i.p. 30 min before and 2 h after acute IOP elevation. Pre- and post-injection C2l (0.3 mg/kg) was done i.p. 30 min before and 2 h after acute IOP elevation. For the One post injection group, C2l was injected 2 h after IOP elevation. For the Two post inj group, C2l was injected 2 and 4 h after IOP elevation. H&E staining was performed 3 days after surgery. Scale bar=30 μm.
Six sections cut through the optic disc of each eye were analyzed. Cell numbers in GCL at a distance between […] the optic disc were counted. Cell densities in 6 sections from each eye were averaged. Data represent means±S.E.M. n=7 for vehicle, n=3 for pre and post inj, n=10 for one post inj, n=6 for two post inj, n=4 for KO. ns, no significant difference. ***p<0.001, Two-tailed t-test.
FIG. 11C: Comparison of GCL cell survival rates from the right eye of vehicle- or C2l-injected wild-type and calpain-1 KO mice and the left eye where sham surgery was performed, as described in FIG. 11A. Survival rate for each mouse was calculated as the ratio of cell density in GCL of IOP-elevated eye to cell density in GCL of sham eye. *p<0.05, **p<0.01 versus vehicle, One-way ANOVA followed by Bonferroni test.
FIG. 11D: Brn-3a immunostaining in the retina of vehicle- or C2l-injected WT mice. Acute IOP elevation was performed on the right eye, while sham surgery was performed on the left eye. Vehicle, 10% DMSO, or C2l, C2l (0.3 mg/kg) was injected i.p. 2 h after acute IOP elevation. Brn3a staining was performed 3 days after surgery. Scale bar=60 μm.
FIG. 11E: Quantification of brn3a staining, as described in FIG. 11D. Brn3a-positive cells in GCL were counted. Data represents mean±S.E.M. n=4 for vehicle, n=5 for C2l. Ns, no significant difference, **p<0.01 sham versus IOP elevation, two-tailed t-test.
FIG. 11F: Comparison of survival rates. n=4 for vehicle, n=5 for C2l. **p<0.01 vehicle versus C2l, two-tailed t-test.
FIG. 11G: Representative immunoblots of PHLPP1 and STEP33 in retina tissue of WT, calpain-1 KO and C2l-injected mice collected 3 h after sham surgery or acute IOP elevation. C2l (0.3 mg/kg) was injected systemically 2 h after sham surgery or IOP elevation.
FIG. 11H: Quantitative analysis of the levels of PHLPP1 and STEP33 and ratios of pAkt/Akt for each group. Results represent means±S.E.M. of 4 experiments. *p<0.05, **p<0.01, ***p<0.001, ns no significant difference, One-way ANOVA followed by Bonferroni test.
Sequential activation of calpain-1 and calpain-2 in retina after acute IOP elevation. The following IOP elevation studies were performed using a model of acute angle closure glaucoma consisting of increasing intraocular pressure (IOP) to 110 mm Hg for 60 min by inserting a needle connected to an elevated reservoir of saline into the anterior chamber. This model reproduced several features of acute angle closure, including, ischemia of retina and iris as noted by absence of red reflex and pupillary response to light. Anterior chamber synechae, resulting in a narrow angle and adhesions between the iris and the cornea, increased cells and flare in the anterior chamber and increased corneal thickness due to corneal edema. Some of these changes persisted over 3 days of observation. Eyes were collected at 0, 2, 4 and 6 h after IOP elevation and retinal frozen sections were prepared and processed for immunohistochemistry with SBDP antibody. In WT mice, SBDP was clearly present in IPL at 2, 4 and 6 h after IOP elevation. However in calpain-1 KO mice, SBDP was only evident in the IPL at 4 and 6 h but not at 2 h (FIG. 10A and C). […]

[2] = tested on: stratum radiatum of field CA1 in acute rat hippocampal slices; assay: field EPSP recording, TBS-induced LTP in acute rat hippocampal slices; assay type: cell-based; conditions: for LTP after theta-burst stimulation: 200 nM, preincubation prior to TBS
Protocol: Results are expressed as percent of the average values over a 10 min baseline period and are means±S.E.M. of the indicated number of experiments.
FIG. 3A: Field recording of excitatory postsynaptic potentials (EPSPs) performed in stratum radiatum of field CA1 in acute rat hippocampal slices in the presence or absence of 200 nM of the calpain-2 selective inhibitor, Formula I, (mCalp-I in the drawing). Preincubation with mCalp-I enhances LTP. Results are expressed as percent of the average values over a 10 min baseline period and are means±S.E.M. of the indicated number of experiments.
Results are expressed as percent of the average values over the 10 min baseline period and are means±S.E.M. of the indicated number of experiments.
Generic calpain inhibitors block LTP when administered before LTP induction. Field recording of excitatory postsynaptic potentials (EPSPs; FIG. 2) was performed in stratum radiatum of field CA1 in acute rat hippocampal slices.
A calpain 2-selective inhibitor enhances LTP. […]

[3] = tested on: SBDP; assay: SBDP formation in IPL after acute IOP elevation, intravitreal C2l in calpain-1 KO mice; assay type: in vivo; conditions: Mus musculus, intravitreal (1 μl) 2 h after IOP elevation, SBDP at 4 h, read-out: apparent IC50, inhibition of SBDP formation in IPL
Protocol: We used intravitreal C2l injection in order to locally deliver C2l to retina. First, we tested the delivery efficiency by injecting different doses of C2l intravitreally 2 h after IOP elevation in calpain-1 KO mice and analyzing SBDP levels in IPL at 4 h (FIG. 12A and B). […] In all subsequent experiments, 20 μM (1 μl) was used to examine the neuroprotective effects of intravitreal C2l injection. Eyes were collected 3 days after surgery for H&E staining.

[4] = 0.3 mg/kg i.p. 30 min before and 2 h after IOP elevation (pre and post inj), 3 days, n=3
[5] = i.p. 2 and 4 h after IOP elevation (two post inj), n=6
[6] = i.p. 2 h after IOP elevation (one post inj), n=10

Structure (SMILES): CCC(NC(=O)C(CC(C)C)NC(=O)OCc1ccccc1)C(=O)C(=O)NCc1cc(OC)cc(OC)c1 (racemic) [Formula 1, Z-Leu-Abu-CONH—CH2-C6H3 (3, 5-(OMe)2)]
- cell counts in GCL, IOP-elevated eye [1, 4]: 105.8±4.5 cells/mm
- cell counts in GCL, sham eye [1, 4]: 125.1±10.5 cells/mm
- SBDP signal in IPL at 4 and 6 h ([1]; 0.3 mg/kg i.p. 2 h after IOP elevation, WT mice): significantly reduced
- cell survival rate (cell count in IOP-elevated eye to sham eye) versus vehicle ([1]; all three C2l injected groups): significantly increased
- cell counts in GCL, IOP-elevated eye [1, 5]: 96.1±6.3 cells/mm
- cell counts in GCL, sham eye [1, 5]: 118.6±3.7 cells/mm
- cell counts in GCL, IOP-elevated eye [1, 6]: 86.4±7.0 cells/mm
- cell counts in GCL, sham eye [1, 6]: 110.6±3.6 cells/mm
- PTEN degradation at 4 and 6 h ([1]; injected 2 h after IOP elevation, WT mice): completely blocked
- LTP after theta-burst stimulation [2]: enhances it
- LTP after theta-burst stimulation ([2]; listed as mCalp-I): enhances LTP
- LTP during the consolidation phase ([2]; applied from 10 min post TBS to 1 hour post TBS): enhanced LTP
- IC50 [3]: 8 µM
